1 compound from patent US20240058283A1, “THE MODE OF ACTION OF N-MeDCPA ON TRPC CHANNELS” (West Virginia University Board of Governors on Behalf of …, priority 2022, published 2024) can be followed below.

In series [1] the test system is Jurkat cells. Type of series: cell-based. To be noted: human. Also noted: dose or concentration left out as unconfirmed. The method, then: ELP-004 (N-MeDCPA) was specifically developed to preclude metabolizing to two toxic metabolites, N—OH-dichloroaniline and 6-OH-dichloroaniline. In vitro assays for toxicity caused by ELP-004 using Jurkat cells show 50% toxicity at […] and <2% toxicity at […]. […] Thus, ELP-004 has high potential for use as a drug to prevent or reduce bone erosion.

The target of series [2] is T1, TRPC4 (Homo sapiens, UniProt Q9UBN4).
T1 construct: expressed in transfected cells; host or cells: HEK293 (transient transfection)
T1 sequence (Q9UBN4 1-977): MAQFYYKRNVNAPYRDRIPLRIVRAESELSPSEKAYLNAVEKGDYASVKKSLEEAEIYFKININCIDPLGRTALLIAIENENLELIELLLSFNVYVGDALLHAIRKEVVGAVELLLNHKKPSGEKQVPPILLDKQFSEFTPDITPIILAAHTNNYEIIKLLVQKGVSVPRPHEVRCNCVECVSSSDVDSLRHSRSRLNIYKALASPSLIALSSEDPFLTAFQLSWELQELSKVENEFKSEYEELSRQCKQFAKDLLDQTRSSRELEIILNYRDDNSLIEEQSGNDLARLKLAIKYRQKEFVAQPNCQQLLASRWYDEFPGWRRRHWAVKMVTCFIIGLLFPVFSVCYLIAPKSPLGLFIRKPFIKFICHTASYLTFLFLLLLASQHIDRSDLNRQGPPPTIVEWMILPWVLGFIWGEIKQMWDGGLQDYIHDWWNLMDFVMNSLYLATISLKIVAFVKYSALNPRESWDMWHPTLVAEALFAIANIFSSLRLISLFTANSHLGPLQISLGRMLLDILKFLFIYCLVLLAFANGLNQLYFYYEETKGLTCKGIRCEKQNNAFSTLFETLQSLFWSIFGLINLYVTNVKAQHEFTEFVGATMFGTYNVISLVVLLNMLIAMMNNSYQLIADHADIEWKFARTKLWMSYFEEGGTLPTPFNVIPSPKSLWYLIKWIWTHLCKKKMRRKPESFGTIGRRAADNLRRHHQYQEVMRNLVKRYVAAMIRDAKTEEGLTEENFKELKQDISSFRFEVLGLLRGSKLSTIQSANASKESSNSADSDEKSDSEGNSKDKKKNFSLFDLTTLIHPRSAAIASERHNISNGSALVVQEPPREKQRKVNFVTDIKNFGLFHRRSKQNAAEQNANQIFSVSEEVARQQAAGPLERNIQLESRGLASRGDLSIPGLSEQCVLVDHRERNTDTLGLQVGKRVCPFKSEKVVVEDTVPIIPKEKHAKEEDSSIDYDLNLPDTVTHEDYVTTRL
In words: FIG. 4 TRPC4 overexpressing cells, fura, OAG in the presence of Ca2+. The series is classed as cell-based. To be noted: TRPC4 O/E cells, Ca2+ present, N=4. The source says:
The assay was done in the presence of Ca^2+. OAG (1-Oleoyl-2-acetyl-sn-glycerol) is a cell permeable DAG analog and directly activates these TRPC channels (i.e. TRPC4 and TRPC5).

Read-outs that look alike come from different tables or passages of the source.

As to `CCC(=O)N(C)c1ccc(Cl)c(Cl)c1` [ELP-004, N-(3,4-dichlorophenyl)-N-methylpropanamide], the figures for the toxicity in series [1] (200) and in series [1] (800) were < 2% and 50%, respectively. Also, in series [2], the IC50 (commonly the concentration that gives 50% inhibition) was determined as 172 nM.
